Assay results published in patent publication US9540389B2, “Antimicrobial potentiators” (priority 2013, dated 2017).

Tests used:
Assay type in all cases: cell-based
[1] = tested on: Escherichia coli AB1157 ΔacrF; experiment: Checkerboard MIC assay (antibacterial agent + MBX2319)
Excerpt: (§1) • Strains and Reagents. The following strains were obtained from the Keio collection (Baba, et al.: Construction of Escherichia coli K-12 in-frame, single-gene knockout mutants: the Keio collection. In Mol Syst Biol, vol. 2, pp. 2006 0008, (2006)): JW0451 (ΔacrB::kan), JW5503 (ΔtolC::kan), JW3234 (ΔacrF::kan), JW2661 (ΔemrB::kan), JW0863 (ΔmacB::kan). The deletion mutations in each of these strains were transferred to AB1157 using P1 phage transduction (see Table 1). The construction of the E. coli cell-based reporter strain (SOS-XXX) that was used for high throughput screening is described in detail in the supplementary information. […] Irgasan was a generous gift from Ciba Speciality Chemicals, Inc. (High Point, N.C.). Hoechst 33342 (H33342) was purchased from Molecular Probes (Eugene, Oreg.). […] Luria Broth (Miller) and agar were purchased as prepared dehydrated media from Becton Dickenson (Franklin Lakes, N.J.). The compound libraries used in high-throughput screens were purchased from Chembridge (San Diego, Calif.), ChemDiv (San Diego, Calif.), and TimTec (Newark, Del.). MBX2319 was synthesized by Microbiotix, Inc. • Antibacterial Activity Assays. The minimal inhibitory concentration (MIC) of antibacterial agents and biocides were determined using the microbroth dilution method essentially as described in the CLSI protocol M7-A7 (CLSI: Method for dilution antimicrobial susceptibility testing for bacteria that grow aerobically; Approved standard-document M7-A7. In Clinical and Laboratory Standards Institute document M7-A7, Clinical and Laboratory Standards Institute, Wayne, Pa., (2006)), with the following exceptions. LB media was used instead of MHB. […] The final concentration of DMSO in each assay was 2%. […] MIC assays were performed in triplicate and the geometric mean was calculated. Checkerboard MIC assays using an EPI and an antibacterial agent were performed essentially as described (Pillai, et al.: Antimicrobial Combinations. In Antibiotics in Laboratory Medicine, ed. by V. Lorian, pp. 365-440, Lippincott Williams & Wilkins, Philadelphia, Pa., (2005)), with the same modifications used for the MIC assays described above. • Time-Kill Assays. Killing curve assays were performed essentially as described (Pillai, et al.: Antimicrobial Combinations. In Antibiotics in Laboratory Medicine, ed. by V. Lorian, pp. 365-440, Lippincott Williams & Wilkins, Philadelphia, Pa., (2005)). Exponential bacterial cultures grown in LB were diluted to a cell density of ˜1×10^7 in LB followed by addition of CIP and/or an EPI. Viability was monitored over 2-4 hours by making serial dilutions in saline and spotting 5 μl of each dilution onto the surface of an LB agar plate in triplicate. Colonies were counted after the plates were incubated at 37° C. for 16-18 hr, colony forming units (CFU) per ml were calculated, and the average and standard deviation for the three replicates was determined. For treatments that decreased CFU/ml below the limit of detection for the spot plating method, the 100 μl samples were diluted into 5 ml LB top agar, were poured onto LB agar plates, and incubated for 18 hr at 37° C. To calculate the fraction of the control for each sample, the average CFU/ml values for treated samples were divided by those from the same sample at 0 h (time=0). Each experiment was repeated at least three times, and a representative experiment is shown. • H33342 Accumulation Assay. The rate of accumulation of the fluorescent dye Hoechst 33342 (H33342), which is a substrate of a wide variety of bacterial efflux pumps (van den Berg van Saparoea, et al., Biochemistry, vol. 44, pp. 16931-16938, (2005)), can be used to estimate the activity of the major efflux pumps in E. coli and many other bacterial species. The H33342 accumulation assay was used to evaluate the effect of EPIs on the activity of the AcrAB-TolC efflux pump in several bacterial species essentially as described (Coldham, et al., J Antimicrob Chemother, vol. 65, pp. 1655-1663, (2010)). […]

[2] = tested on: Escherichia coli AB1157 ΔtolC; experiment: as above
Excerpt: as §1

[3] = tested on: Escherichia coli AB1157 ΔacrB; experiment: as above
Excerpt: as §1

[4] = tested on: Escherichia coli AB1157 (WT); experiment: as above; conditions: WT
Excerpt: as §1

[5] = tested on: Escherichia coli 285 (AB1157, CIPR, overexpresses efflux); experiment: microbe, parasite or virus in culture
Excerpt: as §1

[6] = tested on: Escherichia coli 287 (AB1157, CIPR, overexpresses efflux); experiment: microbe, parasite or virus in culture
Excerpt: as §1

[7] = Escherichia coli, read-out: MIC (μg/ml) with MBX2319 at concn (μM) of: 0

Structure (SMILES): CCN1CCN(C(=O)N[C@@H](C(=O)N[C@@H]2C(=O)N3[C@@H]2SC(C)(C)[C@@H]3C(=O)O)c2ccccc2)C(=O)C1=O [Piperacillin, piperacillin]
- MIC [1, 7]: 4 µg/mL
- MIC (μg/ml) with MBX2319 at concn (μM) of: 1.56 ([1]; ΔacrF, MBX2319 1.56 μM): 2 µg/mL
- MIC (μg/ml) with MBX2319 at concn (μM) of: 3.13 ([1]; ΔacrF, MBX2319 3.13 μM): 1 µg/mL
- MIC (μg/ml) with MBX2319 at concn (μM) of: 6.25 ([1]; ΔacrF, MBX2319 6.25 μM): 0.5 µg/mL
- MIC (μg/ml) with MBX2319 at concn (μM) of: 25 ([1]; ΔacrF, MBX2319 25 μM): 0.5 µg/mL
- MIC (μg/ml) with MBX2319 at concn (μM) of: 50 ([1]; ΔacrF, MBX2319 50 μM): 0.5 µg/mL
- MIC (μg/ml) with MBX2319 at concn (μM) of: 12.5 ([1]; ΔacrF, MBX2319 […]): 0.5 µg/mL
- MIC ratios mutant ([1]; ΔacrF, MIC (WT)/MIC (mutant) in the absence of EPI): 1
- MIC ratios 2319 ([1]; ΔacrF, highest ratio of MIC (no compound)/MIC (MBX2319)): 8
- MIC [2, 7]: 0.125 µg/mL
- MIC (μg/ml) with MBX2319 at concn (μM) of: 1.56 ([2]; ΔtolC, MBX2319 1.56 μM): 0.125 µg/mL
- MIC (μg/ml) with MBX2319 at concn (μM) of: 3.13 ([2]; ΔtolC, MBX2319 3.13 μM): 0.125 µg/mL
- MIC (μg/ml) with MBX2319 at concn (μM) of: 6.25 ([2]; ΔtolC, MBX2319 6.25 μM): 0.125 µg/mL
- MIC (μg/ml) with MBX2319 at concn (μM) of: 25 ([2]; ΔtolC, MBX2319 25 μM): 0.125 µg/mL
- MIC (μg/ml) with MBX2319 at concn (μM) of: 50 ([2]; ΔtolC, MBX2319 50 μM): 0.125 µg/mL
- MIC (μg/ml) with MBX2319 at concn (μM) of: 12.5 ([2]; ΔtolC, MBX2319 […]): 0.125 µg/mL
- MIC ratios mutant ([2]; ΔtolC, MIC (WT)/MIC (mutant) in the absence of EPI): 32
- MIC ratios 2319 ([2]; ΔtolC, highest ratio of MIC (no compound)/MIC (MBX2319)): 1
- MIC [3, 7]: 0.25 µg/mL
- MIC (μg/ml) with MBX2319 at concn (μM) of: 1.56 ([3]; ΔacrB, MBX2319 1.56 μM): 0.125 µg/mL
- MIC (μg/ml) with MBX2319 at concn (μM) of: 3.13 ([3]; ΔacrB, MBX2319 3.13 μM): 0.125 µg/mL
- MIC (μg/ml) with MBX2319 at concn (μM) of: 6.25 ([3]; ΔacrB, MBX2319 6.25 μM): 0.125 µg/mL
- MIC (μg/ml) with MBX2319 at concn (μM) of: 25 ([3]; ΔacrB, MBX2319 25 μM): 0.125 µg/mL
- MIC (μg/ml) with MBX2319 at concn (μM) of: 50 ([3]; ΔacrB, MBX2319 50 μM): 0.125 µg/mL
- MIC (μg/ml) with MBX2319 at concn (μM) of: 12.5 ([3]; ΔacrB, MBX2319 […]): 0.125 µg/mL
- MIC ratios mutant ([3]; ΔacrB, MIC (WT)/MIC (mutant) in the absence of EPI): 16
- MIC ratios 2319 ([3]; ΔacrB, highest ratio of MIC (no compound)/MIC (MBX2319)): 2
- MIC ([4]; Escherichia coli, MBX2319 0 μM, read-out: MIC (μg/ml) with MBX2319 at concn (μM) of: 0): 4 µg/mL
- MIC (μg/ml) with MBX2319 at concn (μM) of: 1.56 ([4]; MBX2319 1.56 μM): 2 µg/mL
- MIC (μg/ml) with MBX2319 at concn (μM) of: 3.13 ([4]; MBX2319 3.13 μM): 1 µg/mL
- MIC (μg/ml) with MBX2319 at concn (μM) of: 6.25 ([4]; MBX2319 6.25 μM): 1 µg/mL
- MIC (μg/ml) with MBX2319 at concn (μM) of: 25 ([4]; MBX2319 25 μM): 0.5 µg/mL
- MIC (μg/ml) with MBX2319 at concn (μM) of: 50 ([4]; MBX2319 50 μM): 0.5 µg/mL
- MIC (μg/ml) with MBX2319 at concn (μM) of: 12.5 ([4]; MBX2319 […]): 0.5 µg/mL
- MIC ratios mutant ([4]; MIC (WT)/MIC (mutant) in the absence of EPI): 1
- MIC ratios 2319 ([4]; highest ratio of MIC (no compound)/MIC (MBX2319)): 8
- MIC (μg/ml) with MBX2319 at concn (μM) of: 1.56 ([5]; 285, MBX2319 1.56 μM): 4 µg/mL
- MIC (μg/ml) with MBX2319 at concn (μM) of: 3.13 ([5]; 285, MBX2319 3.13 μM): 2 µg/mL
- MIC (μg/ml) with MBX2319 at concn (μM) of: 6.25 ([5]; 285, MBX2319 6.25 μM): 2 µg/mL
- MIC (μg/ml) with MBX2319 at concn (μM) of: 25 ([5]; 285, MBX2319 25 μM): 2 µg/mL
- MIC (μg/ml) with MBX2319 at concn (μM) of: 50 ([5]; 285, MBX2319 50 μM): 2 µg/mL
- MIC (μg/ml) with MBX2319 at concn (μM) of: 12.5 ([5]; 285, MBX2319 […]): 2 µg/mL
- MIC ratios mutant ([5]; 285, MIC (WT)/MIC (mutant) in the absence of EPI): 0.5
- MIC ratios 2319 ([5]; 285, highest ratio of MIC (no compound)/MIC (MBX2319)): 4
- MIC [5, 7]: 8 µg/mL
- MIC (μg/ml) with MBX2319 at concn (μM) of: 1.56 ([6]; 287, MBX2319 1.56 μM): 8 µg/mL
- MIC (μg/ml) with MBX2319 at concn (μM) of: 3.13 ([6]; 287, MBX2319 3.13 μM): 4 µg/mL
- MIC (μg/ml) with MBX2319 at concn (μM) of: 6.25 ([6]; 287, MBX2319 6.25 μM): 4 µg/mL
- MIC (μg/ml) with MBX2319 at concn (μM) of: 25 ([6]; 287, MBX2319 25 μM): 2 µg/mL
- MIC (μg/ml) with MBX2319 at concn (μM) of: 50 ([6]; 287, MBX2319 50 μM): 2 µg/mL
- MIC (μg/ml) with MBX2319 at concn (μM) of: 12.5 ([6]; 287, MBX2319 […]): 2 µg/mL
- MIC ratios mutant ([6]; 287, MIC (WT)/MIC (mutant) in the absence of EPI): 0.25
- MIC ratios 2319 ([6]; 287, highest ratio of MIC (no compound)/MIC (MBX2319)): 8
- MIC [6, 7]: 16 µg/mL
